Here are results for 3 compounds from PMC7604895, “Identification of a Novel Substrate-Derived Spermine Oxidase Inhibitor” (Acta Naturae, 2020).

Holding throughout (format): biochemical
Test [1] deals with T1, spermine oxidase (SMOX) (Homo sapiens, UniProt Q9NWM0).
T1 construct: human SMOX expressed from pET15b in E. coli BL21(DE3), polyhistidine tag removed by thrombin
As to the kind of experiment: luminol-HRP chemiluminescent H2O2 assay with purified SMOX, […] Spm substrate, […] min preincubation.

The target of test [2] is T1, spermine oxidase (SMOX). Briefly: luminol-HRP chemiluminescent H2O2 assay with purified SMOX, […] Spm substrate (positive control inhibitor).
The target in test [3] is T1, spermine oxidase (SMOX). Briefly: substrate turnover by purified SMOX, luminol-HRP chemiluminescent H2O2 detection.

T1 sequence (Q9NWM0 whole entry): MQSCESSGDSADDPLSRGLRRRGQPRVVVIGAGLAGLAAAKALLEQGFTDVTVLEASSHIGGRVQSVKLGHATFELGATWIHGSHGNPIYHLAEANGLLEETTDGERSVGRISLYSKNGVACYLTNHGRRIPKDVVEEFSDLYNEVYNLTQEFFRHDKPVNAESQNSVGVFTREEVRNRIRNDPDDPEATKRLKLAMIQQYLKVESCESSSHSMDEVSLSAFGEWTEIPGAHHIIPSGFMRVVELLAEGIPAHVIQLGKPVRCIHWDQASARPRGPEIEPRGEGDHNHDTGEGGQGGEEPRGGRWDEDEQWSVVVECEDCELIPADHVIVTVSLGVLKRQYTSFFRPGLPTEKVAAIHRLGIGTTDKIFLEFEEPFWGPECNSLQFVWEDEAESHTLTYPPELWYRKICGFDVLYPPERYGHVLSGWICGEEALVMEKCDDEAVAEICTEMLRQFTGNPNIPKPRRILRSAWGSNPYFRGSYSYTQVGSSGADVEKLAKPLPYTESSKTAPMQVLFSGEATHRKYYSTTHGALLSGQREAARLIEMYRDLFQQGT

On to `C=C(CN)CNCCCCNCC(=C)CN` [2,11-Met2-Spm, 1,12-diamino-2,11-bis(methylidene)-4,9-diazadodecane], for which the half-maximal inhibitory concentration (IC50) (as a rule, the midpoint of a concentration-inhibition curve) against spermine oxidase (SMOX) [1] turned out to be 169 µM.

With `C=C=CCNCCCCNCC=C=C` [MDL72527, N1,N4-(bis(2,3-butadienyl)-1,4-butanediamine)], the IC50 against spermine oxidase (SMOX) [2] is 100 µM.

As for `NCCCNCCCCNCCCN` [Spm, spermine], the “substrate turnover by purified SMOX, luminol-HRP chemiluminescent H2O2 detection” value on spermine oxidase (SMOX) [3] is recorded as “SMOX activity was measured using a chemiluminescent enzyme-based assay detecting the formation of H2O2 in the presence of Spm”.
